# Measured values from patent US6984513B2, “Anaerobe targeted enzyme-mediated prodrug therapy” (priority 1994, dated 2006).
# How the values were obtained:
# [1] = cited from earlier work
# SCCVII cells = assay: Growth inhibition of SCCVII cells by 5-FC or 5-FU with or without cell extract from recombinant C. sporogenes
# Procedure: The function of the C. sporogenes-derived cytosine deaminase was tested by assaying its ability to convert the nontoxic 5-fluorocytosine (5-FC) to the toxic 5-fluorouracil (5-FU).
# [2] = target: nitroreductase enzyme from E. coli (Escherichia coli, UniProt P38489); conditions: cited from earlier work
# Sequence of nitroreductase enzyme from E. coli (P38489 whole entry): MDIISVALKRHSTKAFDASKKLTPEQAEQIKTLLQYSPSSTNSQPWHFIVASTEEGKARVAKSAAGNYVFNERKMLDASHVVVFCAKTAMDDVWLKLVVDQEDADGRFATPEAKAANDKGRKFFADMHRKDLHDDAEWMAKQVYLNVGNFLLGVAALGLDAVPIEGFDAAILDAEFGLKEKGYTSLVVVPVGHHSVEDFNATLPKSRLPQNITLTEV
# [3] = system: mouse and human tumor cell lines; conditions: cited from earlier work
# Walker carcinoma cells = conditions: cited from earlier work
# SCCVII tumor cells = assay: Cell killing of SCCVII cells exposed to CB1954, NADH and supernatant from wild type or recombinant C. acetobutylicum (colony growth); conditions: 2 hr incubation, NADH 500 μM
# Procedure: The ability of recombinant C. acetobutylicum to activate CB1954 was also tested in vitro, also as described in Example 1. Briefly, recombinant and wild type C. acetobutylicum were inoculated into medium, and after overnight incubation, the cultures were centrifuged and the supernatant collected. The supernatant was added to cultures of SCCVII tumor cells, along with addition of various concentrations of CB1954 in DMSO. After incubation for two hours, the cells were counted by hemocytometer, and appropriate dilutions plated and incubated for colony growth.
# In order to test the ability of recombinant C. acetobutylicum to activate CB1954, recombinant and wild type C. acetobutylicum were inoculated into 20 ml of medium. After overnight incubation, the cultures were centrifuged and the supernatant collected and diluted 1:3 with Waymouth's growth medium. […] To these cultures, different concentrations of CB1954 in DMSO were added, and the amount of DMSO adjusted in all of the cultures (including the controls) to 1% DMSO. Controls consisted of cell culture with only the supernatant/cell culture medium mixture. […]
# After a 2 hr incubation in air at 37° C., the medium was removed, all the plates were washed 3 times with PBS, trypsinized, the cells counted by hemocytometer, and appropriate dilutions plated and incubated for 10 days in a 5% CO2 incubator at 370 C for colony growth.
# Walker 256 rat carcinoma = conditions: cited from earlier work
# [4] = prodrug alone; cited from earlier work
# [5] = system: human breast and ovarian cancer cells; conditions: cited from earlier work
compound,measurement,setting,value
O=C(O)[C@H]1O[C@@H](n2cc(F)c(=O)[nH]c2=O)[C@H](O)[C@@H](O)[C@@H]1O [1-N-β-glucuronide of 5-fluorouracil],stability in vivo,[1],stable in vivo
"Nc1nc(=O)[nH]cc1F [5-FC, 5-fluorocytosine]",effect of cell extract from C. sporogenes transformed with an empty vector on sensitivity,SCCVII cells,did not affect the sensitivity
same,toxicity of 5-FC plus cell extract from recombinant C. sporogenes compared with 5-FU,SCCVII cells,same toxicity as 5-FU
same,increase in cytotoxicity of 5-FC by cell extract from recombinant C. sporogenes expressing cytosine deaminase (factor),"SCCVII cells; cell extract 5, 10, 20 μg/ml",10^4
"O=c1[nH]cc(F)c(=O)[nH]1 [5-FU, 5-fluorouracil]",effect of cell extract from recombinant C. sporogenes on sensitivity to 5-FU,SCCVII cells,nor did cell extract from recombinant C. sporogenes affect sensitivity to 5-FU
"NC(=O)c1cc(N2CC2)c([N+](=O)[O-])cc1[N+](=O)[O-] [CB1954, 5-[aziridine-1-yl]-2,4-dinitrobenzamide]",rate of reduction of CB1954 relative to that of the rat DT diaphorase,[2],60 times
same,activity against a range of mouse and human tumor cell lines,[3],poor activity
same,difference in sensitivity between rat and human cells (factor),[3],10^4-10^5
same,activity on Walker carcinoma cells in vitro,Walker carcinoma cells,potent activity
same,enhancement of the toxicity of CB1954 by supernatant from transformed C. acetobutylicum,SCCVII tumor cells,approximately 10 fold
same,activity against Walker 256 rat carcinoma in vivo,Walker 256 rat carcinoma,potent activity
butylated ammonium salt of the glucuronide conjugate of hydroxyanaline mustard,potency relative to hydroxyanaline mustard (times less potent),[4],10^3 times
glucuronide conjugate of epirubicin,toxicity when combined with a Mab-β-glucuronidase conjugate,[5],as toxic as epirubicin
same,toxicity of the prodrug (fold less toxic),[5]; prodrug alone,approximately 100 fold
